Read-outs that look alike come from different tables or passages of the source.
Assays:
SARS-CoV2 WA-2020 strain [1] = assay type: cell-based; settings: Vero E6, 40,000 cells/well, MOI 0.01, 72 hours
SARS-CoV-2 = assay: microbe, parasite or virus in culture; assay type: cell-based; settings: for IC50: read-out: IC50 of inhibition of the replication of SARS-CoV-2
SARS-CoV2 WA-2020 strain [2] = assay type: cell-based; settings: Vero E6, 2000 cells/well, MOI 0.05, 72 hours
SARS-CoV2 WA-2020 strain [3] = assay type: cell-based; settings: Vero E6, 40,000 cells/well, MOI 0.01, 72 hours supernatant
Vero E6 cells = settings: MTT assay, uninfected Vero E6 cells, same compound dilutions
[4] = Severe acute respiratory syndrome coronavirus 2, Vero C1008, 48 h

O=C1Nc2cc(S(=O)(=O)Cc3c(Cl)cccc3Cl)ccc2S/C1=C\c1ccc(O)c([N+](=O)[O-])c1 [compound 108600]
release of NP protein from infected cells into the medium (SARS-CoV2 WA-2020 strain [1]): inhibition was noted only with 10 µM concentration | IC50 (SARS-CoV-2; Vero E6 cells, 2,000 cells/well, MOI 0.025, 48 h, percent infected cells (NP immunostain)): 13 nM | fold more effective/active than Remdesivir (IC50, SARS-CoV-2 replication) (SARS-CoV-2; Vero E6 cells, relative to Remdesivir): approximately 63 fold | release of NP protein / virus from infected cells (SARS-CoV2 WA-2020 strain [2]): inhibited SARS-CoV-2 infection of Vero cells in a dose dependent manner | infectious titer of released virus (plaque assay) (SARS-CoV2 WA-2020 strain [3]): correlated to the infectious titers | effect on the viability of Vero E6 cells (Vero E6 cells): little or no effect

CCN(CCO)CCCC(C)Nc1ccnc2cc(Cl)ccc12 (stereo not drawn) [Hydroxy-Chloroquine]
IC50 (SARS-CoV-2; [4]): 733 nM

CCC(CC)COC(=O)[C@H](C)N[P@](=O)(OC[C@H]1O[C@@](C#N)(c2ccc3c(N)ncnn23)[C@H](O)[C@@H]1O)Oc1ccccc1 [Remdesivir]
IC50 (SARS-CoV-2; [4]): 826 nM

CN1CCN(c2ccc(Nc3ncc4cc(C#N)c(=O)n(C5CCCC5)c4n3)cc2)CC1 [ON123300]
effect on viral replication (SARS-CoV-2; Vero E6 cells, negative control, data not shown): no effect on viral replication

From patent US20230286934A1, “Use of Multi-Kinase Inhibitors to Treat RNA Virus Infections” (priority 2020, published 2023)
